From patent publication US6811998B2, “Conjugates of uncompetitive inhibitors of inosine monophosphate dehydrogenase” (priority 1999, dated 2004)

Columns and labels:
[1] = biological target: T1, IMPDH II (Homo sapiens, UniProt P12268); experiment: Inhibition constants of ligand inhibitors: NADH formation at 340 nm, 10 minutes, 40° C.; type: biochemical; settings: IMPDH II 0.00065 U/ml, non-linear curve fit
[2] = biological target: T1, IMPDH II; experiment: IC50 by slightly different method: enzyme rate on HITACHI 917 as in Examples 20 and 29, no antibody, saline sample; type: biochemical; set-up: made in house; host or cells: E. coli; settings: values marked *: HITACHI 917 method
Method: One liter of an enzyme reagent, or second reagent, was prepared as follows. Approximately 800 ml deionized water was dispensed into a container and 168.8 grams of NaTAPSO was added and completely dissolved. Next, 1.15 grams of TCEP was dissolved. Next 31.4 grams of IMP was dissolved, then 2.23 grams of Na2EDTA were dissolved. Next 1.0 gram of SUTTOCIDE A was dissolved. The volume was adjusted to one liter with deionized water. Enough recombinant human IMPDH-II was added (as a 35% ammonium sulfate precipitate of an E. coli lysate supernatant) and dissolved completely in order to achieve a change in absorbance at 340 nm of 780×10^−4 over 5 minutes at 37° C. […]
(§1) An HITACHI 917 analyzer (Roche Diagnostics Corp., Indianapolis) was programmed to dispense 3 μl of sample and 150 μl of antibody reagent into a 37° C. cuvette, which were then mixed and incubated for 5 minutes after which time 150 μl of enzyme reagent was added and mixed. The rate at 340 nm (mA/min) was calculated during the period 3 minutes 13 seconds to 4 minutes 42 seconds (read window 29-34) following enzyme reagent addition.
One liter of a second reagent was prepared as follows. […] Enough recombinant human IMPDH-II was added (as a 35% ammonium sulfate precipitate of an E. coli lysate supernatant) and dissolved completely in order to achieve a change in absorbance at 340 nm of 3100×10^−4 over 5 minutes at 37° C. […]

[3] = biological target: T1, IMPDH II; experiment: Homogeneous enzyme immunoassay with ligand-inhibitor conjugate (thyroxine and theophylline); type: biochemical; set-up: made in house; host or cells: E. coli; settings: compared with MPA-theophylline
Method: as §1
Saline samples spiked with theophylline were assayed using the method of the present invention. Theophylline (Sigma Chemical) was first dissolved in saline (1 mg/10 ml) and then diluted to achieve concentrations of 0, 5, 10, 20, 40 and 50 μg/ml. An HITACHI 717 analyzer (Roche Diagnostics Corp., Indianapolis) was programmed to dispense 3 μl of sample and 150 μl of first reagent into a 37° C. cuvette, which were then mixed and incubated for 5 minutes, after which time 150 μl of second reagent was added and mixed. The difference in absorbance at 340 nm was calculated from the initial addition of the second reagent to 5 minutes following the second reagent addition.
J. Org. Chem. 61, 2236-2241, (1996).

[4] = system: IMPDH; experiment: Sensitivity of mycophenolic acid inhibition of IMPDH; type: biochemical
[5] = biological target: IMPDH-I (Homo sapiens, UniProt P20839); settings: read-out: Ki (IC50), J. Biol. Chem. 268, 27286-27290 (1993); cited from earlier work
IMPDH-I, sequence (P20839 whole entry): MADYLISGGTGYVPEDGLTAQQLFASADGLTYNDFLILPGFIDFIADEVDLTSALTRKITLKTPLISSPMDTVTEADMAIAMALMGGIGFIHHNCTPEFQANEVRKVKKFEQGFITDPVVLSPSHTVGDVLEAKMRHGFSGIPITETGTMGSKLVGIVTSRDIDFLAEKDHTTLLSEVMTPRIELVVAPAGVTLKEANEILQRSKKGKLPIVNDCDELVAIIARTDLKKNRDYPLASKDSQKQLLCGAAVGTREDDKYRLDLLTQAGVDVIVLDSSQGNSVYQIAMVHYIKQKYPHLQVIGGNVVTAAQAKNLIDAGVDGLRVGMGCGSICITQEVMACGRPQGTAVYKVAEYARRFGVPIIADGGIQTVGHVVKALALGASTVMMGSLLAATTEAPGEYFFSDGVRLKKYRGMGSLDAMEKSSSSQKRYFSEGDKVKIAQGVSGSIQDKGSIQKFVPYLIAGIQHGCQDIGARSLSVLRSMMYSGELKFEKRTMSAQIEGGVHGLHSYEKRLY

[6] = biological target: T1, IMPDH II; experiment: IMPDH activity as a function of ligand-inhibitor conjugate, antibody and analyte concentration (HITACHI 717, NADH at 340 nm); type: biochemical; set-up: made in house; host or cells: E. coli
Method: One liter of an antibody reagent, or first reagent, was prepared as follows. Approximately 800 ml deionized water was dispensed into a container and 6.0 grams of ACES were added and dissolved. The pH was adjusted to 6.0 with 2N NaOH. Then 0.53 grams NAD were added and dissolved completely. Next 10 ml ascites anti-MPA monoclonal antibody was added. Then 0.95 grams sodium azide was added and dissolved, and finally 1.0 gram of SUTTOCIDE A (GAF Chemicals Corp.) was added and dissolved. The volume was adjusted to one liter with deionized water.
One liter of an enzyme reagent, or second reagent, was prepared as follows. Approximately 800 ml deionized water was dispensed into a container and 56.3 grams of NaTAPSO was added and completely dissolved. Then 81.6 grams of sodium acetate-3H2O were added and dissolved. Next, 1.15 grams of TCEP were added and dissolved. Next 0.319 grams of IMP were added and dissolved, then 2.23 grams of Na2EDTA were added and dissolved. Next 1.0 gram of SUTTOCIDE A was added and dissolved. The volume was adjusted to one liter with deionized water. Approximately 13.4 ml of recombinant human IMPDH-II were added (E. coli lysate) and dissolved completely in order to achieve a change in absorbance at 340 nm of 4400×10^−4 over 5 minutes at 37° C. Next 0.002 grams of ligand-inhibitor conjugate (MPA-MPA, Example 42) were added and dissolved.
Human plasma samples spiked with mycophenolic acid were assayed for MPA using the present invention. An HITACHI 717 analyzer (Roche Diagnostics Corp. Indianapolis) was programmed to dispense 3 μl of sample and 150 μl of antibody reagent into a 37° C. cuvette, which were then mixed and incubated for 5 minutes after which time 150 μl of enzyme reagent was added and mixed. The difference in absorbance at 340 nm was calculated from the initial addition of enzyme reagent to 5 minutes following enzyme reagent addition.
With sample set A, the reagents contained no antibody or ligand-inhibitor and produced maximum IMPDH activity. With sample set B, the enzyme reagent contained ligand inhibitor and was used to show the effect of ligand inhibitor on IMPDH activity.

## 5′-(digoxigenin-3-yl-β-amidomethyl)-MPA [16A]
[1]
  IC50: 170 nM

## 5′-(digoxigenin-3-yl-β-amidomethyl)-MPA [16B]
[1]
  IC50: 68 nM

## 5′-[(digoxigenin-3-yl)-oxymethylcarbonyl-DADOO-carbonylmethyl]-MPA [compound 26]
[1]
  IC50: 170 nM

## 5′-[(gentamicin[C1a]-N^1-carbonyl-oxy)-isoprenyl]-MPA
[1]
  IC50: 660 nM

## 5′-[(gentamicin[C1a]-N^1-terephthaloyl)-amino-isoprenyl]-MPA [U]
[1]
  IC50: 270 nM

## 5′-[(isoprenyloxycarbonylaminoethyleneamido)-thyroxine]-MPA [compound 11]
[2]
  IC50: 83 nM
[3]
  sensitivity in an immunoassay: greater sensitivity

## 5′-[(phenytoin-3-butyramido)-isoprenyl]-MPA
[1]
  IC50: 88 nM

## 5′-[(theophylline-8-butyramidoethylaminocarbonyloxy)-isoprenyl]-MPA [compound 20]
[2]
  IC50: 250 nM

## COc1c(C)c2c(c(O)c1C/C=C(\C)CCC(=O)O)C(=O)OC2 [MPA, mycophenolic acid]
[4]
  sensitivity of mycophenolic acid inhibition: 10 to 20 nM
[5]
  Ki: 37 nM
[6]; set A: sample MPA 5 μg/ml, no anti-MPA, no MPA—MPA
  ΔA × 10^−4 @ 340 nm: 1939 × 10^−4
[6]; set A: sample MPA 10 μg/ml, no anti-MPA, no MPA—MPA
  ΔA × 10^−4 @ 340 nm: 541 × 10^−4
[6]; set E: sample MPA 5 μg/ml, anti-MPA 1:100, no MPA—MPA
  ΔA × 10^−4 @ 340 nm: 4075 × 10^−4
[6]; set E: sample MPA 10 μg/ml, anti-MPA 1:100, no MPA—MPA
  ΔA × 10^−4 @ 340 nm: 3667 × 10^−4

## MPA-isoprenyl alcohol [3A]
[1]
  IC50: 48 nM

## MPA-isoprenyl alcohol [3B]
[1]
  IC50: 13 nM
